Assay results from patent publication US9278962B2 (Cytokinetics, Inc., priority 2011, dated 2016).

System: rabbit skeletal myofibrils (approximately 90% fast fibers)
Test: Activation of fast skeletal myofibrils (PUMA coupled-enzyme ATPase assay, AC1.4)
Type: biochemical
Details: concentration at which the compound increased enzymatic activity by 40%, calcium at pCa25

SMILES | Mean AC1.4 (Table 2) | Mean AC1.4 (Table 3) | other results
NC(=O)c1cccc(-c2nsc(NCCCc3ccccc3)n2)c1 [3-{5-[(3-phenylpropyl)amino]-1,2,4-thiadiazol-3-yl}benzamide] | D (D=>20 uM) | – | –
CC(C)(CNc1nc(CNCCCO)ns1)c1ccc(F)cc1 [3-{[(5-{[2-(4-fluorophenyl)-2-methylpropyl]amino}-1,2,4-thiadiazol-3-yl)methyl]amino}propan-1-ol] | D (D=>20 uM) | – | –
CC(C)(O)CCc1nsc(NCC(C)(C)c2ccc(F)cc2)n1 [4-(5-{[2-(4-fluorophenyl)-2-methylpropyl]amino}(1,2,4-thiadiazol-3-yl))-2-methylbutan-2-ol] | B (B=1-10 uM) | – | –
CC(C)(CNc1nc(-c2ccc(C(N)=O)cc2)ns1)c1ccc(F)cc1 [4-(5-{[2-(4-fluorophenyl)-2-methylpropyl]amino}-1,2,4-thiadiazol-3-yl)benzamide] | A (A=<1 uM) | – | –
CC(C)(CNc1nc(-c2ccc(O)cc2)ns1)c1ccc(F)cc1 [4-(5-{[2-(4-fluorophenyl)-2-methylpropyl]amino}-1,2,4-thiadiazol-3-yl)phenol] | A (A=<1 uM) | – | –
C[C@H](CNc1nc(-c2ccc(C(N)=O)cc2)ns1)c1ccc(F)cc1 [4-(5-{[(2S)-2-(4-fluorophenyl)propyl]amino}-1,2,4-thiadiazol-3-yl)benzamide] | A (A=<1 uM) | – | –
COc1cccc(Cc2nsc(NCCc3ccc(S(N)(=O)=O)cc3)n2)c1 [4-[2-({3-[(3-methoxyphenyl)methyl]-1,2,4-thiadiazol-5-yl}amino)ethyl]benzenesulfonamide] | D (D=>20 uM) | – | –
NS(=O)(=O)c1ccc(CCNc2nc(Cc3ccc(F)cc3)ns2)cc1 [4-[2-({3-[(4-fluorophenyl)methyl]-1,2,4-thiadiazol-5-yl}amino)ethyl]benzenesulfonamide] | D (D=>20 uM) | – | –
Oc1ccc(CCNc2nc(Cc3ccc(F)cc3)ns2)cc1 [4-[2-({3-[(4-fluorophenyl)methyl]-1,2,4-thiadiazol-5-yl}amino)ethyl]phenol] | D (D=>20 uM) | – | –
CC(C)(CNc1nc(Cc2ccc(O)cc2)ns1)c1ccc(Cl)cc1 [4-[(5-{[2-(4-chlorophenyl)-2-methylpropyl]amino}-1,2,4-thiadiazol-3-yl)methyl]phenol] | A (A=<1 uM) | – | –
CC(C)(CNc1nc(Cc2ccc(O)cc2)ns1)c1ccc(F)cc1 [4-[(5-{[2-(4-fluorophenyl)-2-methylpropyl]amino}-1,2,4-thiadiazol-3-yl)methyl]phenol] | A (A=<1 uM) | – | –
CC(C)(CNc1nc2c(Cl)cc(C#N)cc2s1)c1ccc(F)cc1 [4-chloro-2-(2-(4-fluorophenyl)-2-methylpropylamino)benzo[d] thiazole-6-carbonitrile] | – | – | Mean AC1.4 (Table 4): A (A=<1 uM)
CC(C)(CNc1nc2c(Cl)cc(C(N)=O)cc2s1)c1ccc(F)cc1 [4-chloro-2-(2-(4-fluorophenyl)-2-methylpropylamino)benzo[d] thiazole-6-carboxamide] | – | – | Mean AC1.4 (Table 4): A (A=<1 uM)
N#Cc1cc(Cl)c2nc(NCC3(c4ncccc4F)CCC3)sc2c1 [4-chloro-2-((1-(3-fluoropyridin-2-yl)cyclobutyl)methylamino)benzo[d] thiazole-6-carbonitrile] | – | – | Mean AC1.4 (Table 4): B (B=1-10 uM)
NC(=O)c1cc(Cl)c2nc(NCC3(c4ncccc4F)CCC3)sc2c1 [4-chloro-2-((1-(3-fluoropyridin-2-yl)cyclobutyl)methylamino)benzo[d] thiazole-6-carboxamide] | – | – | Mean AC1.4 (Table 4): A (A=<1 uM)
NC(=O)c1ccc(Cl)c2nc(NC[C@]3(c4ncccc4F)C[C@H](F)C3)sc12 [4-chloro-2-((3-fluoro-1-(3-fluoropyridin-2-yl)cyclobutyl)methylamino)benzo[d] thiazole-7-carboxamide] | – | – | Mean AC1.4 (Table 4): B (B=1-10 uM)
CC(C)(CNc1nc2c(Cl)cccc2s1)c1ccc(F)cc1 [4-chloro-N-(2-(4-fluorophenyl)-2-methylpropyl)benzo[d]thiazol-2-amine] | – | – | Mean AC1.4 (Table 4): A (A=<1 uM)
CC(C)(CNc1nc2c(C#N)cc(C(N)=O)cc2s1)c1ccc(F)cc1 [4-cyano-2-(2-(1-fluorophenyl)-2-methylpropylamino)benzo[d] thiazole-6-carboxamide] | – | – | Mean AC1.4 (Table 4): A (A=<1 uM)
N#Cc1cc(C(N)=O)cc2sc(NCC3(c4ncccc4F)CCC3)nc12 [4-cyano-2-((1-(3-fluoropyridin-2-yl)cyclobutyl)methylamino)benzo[d] thiazole-6-carboxamide] | – | – | Mean AC1.4 (Table 4): A (A=<1 uM)
Cn1nc(NC2(c3ncccc3F)CCC2)nc1-c1cc(C(N)=O)ccc1F [4-fluoro-3-(5-(1-(3-fluoropyridin-2-yl)cyclobutylamino)-2-methyl-2H-1,2,4-triazol-3-yl)benzamide] | – | – | Mean AC1.4 (Table 5): D (D=>20 uM)
Cn1nc(NC2(c3ncccc3F)CCC2)nc1-c1cc(C#N)ccc1F [4-fluoro-3-(5-(1-(3-fluoropyridin-2-yl)cyclobutylamino)-2-methyl-2H-1,2,4-triazol-3-yl)benzonitrile] | – | – | Mean AC1.4 (Table 5): D (D=>20 uM)
NC(=O)c1ccc(F)c(-c2nnc(NC3(c4ncccc4F)CCC3)[nH]2)c1 [4-fluoro-3-(5-(1-(3-fluoropyridin-2-yl)cyclobutylamino)-4H-1,2,4-triazol-3-yl)benzamide] | – | – | Mean AC1.4 (Table 5): D (D=>20 uM)
N#Cc1ccc(F)c(-c2nnc(NC3(c4ncccc4F)CCC3)[nH]2)c1 [4-fluoro-3-(5-(1-(3-fluoropyridin-2-yl)cyclobutylamino)-4H-1,2,4-triazol-3-yl)benzonitrile] | – | – | Mean AC1.4 (Table 5): D (D=>20 uM)
CC(C)(Nc1nnc(-c2cc(C(N)=O)ccc2F)o1)c1ccc(F)cc1 [4-fluoro-3-(5-(2-(4-fluorophenyl)propan-2-ylamino)-1,3,4-oxadiazol-2-yl)benzamide] | – | – | Mean AC1.4 (Table 5): C (C=10-20 uM)
CC(C)(Nc1nnc(-c2cc(C#N)ccc2F)o1)c1ccc(F)cc1 [4-fluoro-3-(5-(2-(4-fluorophenyl)propan-2-ylamino)-1,3,4-oxadiazol-2-yl)benzonitrile] | – | – | Mean AC1.4 (Table 5): D (D=>20 uM)
Cn1c(NC(C)(C)c2ccc(F)cc2)nnc1-c1cc(C(N)=O)ccc1F [4-fluoro-3-(5-(2-(4-fluorophenyl)propan-2-ylamino)-4-methyl-4H-1,2,4-triazol-3-yl)benzamide] | – | – | Mean AC1.4 (Table 5): D (D=>20 uM)
CC(C)(CNc1nnc(-c2ccc3[nH]nc(N)c3c2)s1)c1ccc(F)cc1 [5-(3-amino-1H-indazol-5-yl)-N-(2-(4-fluorophenyl)-2-methylpropyl)-1,3,4-thiadiazol-2-amine] | – | A (A=<1 uM) | –

More lines, main results first:

Mean AC1.4 (Table 2) | Mean AC1.4 (Table 3) | SMILES | other results
– | D (D=>20 uM) | NC(=O)c1ccc(-c2nnc(NCC3(c4ncccc4F)CCC3)s2)cc1 [4-(5-((1-(3-fluoropyridin-2-yl)cyclobutyl)methylamino)-1,3,4-thiadiazol-2-yl)benzamide] | –
– | D (D=>20 uM) | N#Cc1ccc(-c2nnc(NCC3(c4ncccc4F)CCC3)s2)cc1 [4-(5-((1-(3-fluoropyridin-2-yl)cyclobutyl)methylamino)-1,3,4-thiadiazol-2-yl)benzonitrile] | –
– | A (A=<1 uM) | NC(=O)c1ccc(Cl)c(-c2nnc(NC[C@]3(c4ncccc4F)C[C@H](F)C3)s2)c1 [4-chloro-3-(5-((3-fluoro-1-(3-fluoropyridin-2-yl)cyclobutyl)methylamino)-1,3,4-thiadiazol-2-yl)benzamide] | –
– | B (B=1-10 uM) | N#Cc1ccc(Cl)c(-c2nnc(NC[C@]3(c4ncccc4F)C[C@@H](F)C3)s2)c1 [4-chloro-3-(5-(((cis)-3-fluoro-1-(3-fluoropyridin-2-yl)cyclobutyl)methylamino)-1,3,4-thiadiazol-2-yl)benzonitrile] | –
– | A (A=<1 uM) | N#Cc1ccc(Cl)c(-c2nnc(NC[C@]3(c4ncccc4F)C[C@H](F)C3)s2)c1 [4-chloro-3-(5-(((trans)-3-fluoro-1-(3-fIuoropyridin-2-yl)cyclobutyl)methylamino)-1,3,4-thiadiazol-2-yl)benzonitrile] | –
– | A (A=<1 uM) | NC(=O)c1ccc(F)c(-c2nnc(NCC3(c4ncccc4F)CCC3)s2)c1 [4-fluoro-3-(5-((1-(3-fluoropyridin-2-yl)cyclobutyl)methylamino)-1,3,4-thiadiazol-2-yl)benzamide] | –
– | B (B=1-10 uM) | N#Cc1ccc(F)c(-c2nnc(NCC3(c4ncccc4F)CCC3)s2)c1 [4-fluoro-3-(5-((1-(3-fluoropyridin-2-yl)cyclobutyl)methylamino)-1,3,4-thiadiazol-2-yl)benzonitrile] | –
– | A (A=<1 uM) | NC(=O)c1ccc(F)c(-c2nnc(NC[C@]3(c4ncccc4F)C[C@H](F)C3)s2)c1 [4-fluoro-3-(5-((3-fluoro-1-(3-fluoropyridin-2-yl)cyclobutyl)methylamino)-1,3,4-thiadiazol-2-yl)benzamide] | –
– | B (B=1-10 uM) | N#Cc1ccc(F)c(-c2nnc(NC[C@]3(c4ncccc4F)C[C@H](F)C3)s2)c1 [4-fluoro-3-(5-((3-fluoro-1-(3-fluoropyridin-2-yl)cyclobutyl)methylamino)-1,3,4-thiadiazol-2-yl)benzonitrile] | –
D (D=>20 uM) | – | NC(=O)c1ccc(F)c(-c2nsc(NC3(c4ncccc4F)CCC3)n2)c1 [4-fluoro-3-(5-{[(3-fluoro(2-pyridyl))cyclobutyl]amino}(1,2,4-thiadiazol-3-yl))benzamide] | –
– | A (A=<1 uM) | Fc1cccnc1C1(CNc2nnc(-c3ccccc3Cl)s2)CCC1 [5-(2-chlorophenyl)-N-((1-(3-fluoropyridin-2-yl)cyclobutyl)methyl)-1,3,4-thiadiazol-2-amine] | –
– | B (B=1-10 uM) | Fc1cccnc1C1(CNc2nnc(-c3ccc(Br)cc3)s2)CCC1 [5-(4-bromophenyl)-N-((1-(3-fluoropyridin-2-yl)cyclobutyl)methyl)-1,3,4-thiadiazol-2-amine] | –
– | B (B=1-10 uM) | Cc1cc(C#N)sc1-c1nnc(NC[C@]2(c3ncccc3F)C[C@H](F)C2)s1 [5-(5-((3-fluoro-1-(3-fluoropyridin-2-yl)cyclobutyl)methylamino)-1,3,4-thiadiazol-2-yl)-4-methylthiophene-2-carbonitrile] | –
